# Source: patent publication US12653191B2, “Active compound combinations” (Bayer Aktiengesellschaft, priority 2020, dated 2026)
# “And” between values parts separate entries of the source, which are not always exact repeats. Identical values can stand only once. Like-named read-outs stand apart in the source and are kept apart here.
# What was measured:
# [1] = Log P by HPLC on reversed phase columns (LC-UV), method [a]: acidic range, 0.1% formic acid in water / acetonitrile; format: physicochemical
# Method: Measurement of Log P Values
# Measurement of Log P values as provided herein was performed according to EEC directive 79/831 Annex V.A8 by HPLC (High Performance Liquid Chromatography) on reversed phase columns with the following methods: • ^[a]
# If more than one Log P value is available within the same method, all the values are given and separated by “+”.
# Alternaria alternate = experiment: in vitro-Test with fungal microorganisms, Method A (tables A1-A12); format: cell-based, Alternaria alternata; details: applied alone
# Outline: (§1)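 First, compound in methanol with alkylaryl-polyglycol-ether was dried down in the plate. Next, spore or mycelium suspension in potato dextrose broth was added and extinction read at 620 nm. After 3-5 days at 20° C, 85% RH, reading was repeated and efficacy scored against untreated wells.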
# Botrytis cinerea [2] = experiment: in vitro-Test with fungal microorganisms, Method A (tables B1-B14); format: cell-based
# Outline: as §1
# Cercospora beticola [3] = experiment: in vitro-Test with fungal microorganisms, Method B (tables C11-C20); format: cell-based
# Outline: (§2)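 Efficacy scale: 0% means growth equal to the untreated control, 100% means none detected. Compounds are dried from methanol with emulsifier before adding inoculated growth medium; incubation at 20° C., 85% relative humidity for 3 to 7 days precedes photometric inhibition readout.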
# [4] = system: Colletotrichum lindemuthianum; experiment: in vitro-Test with fungal microorganisms, Method A (tables D1-D8); format: cell-based
# Outline: as §1
# Cordana musae = experiment: in vitro-Test with fungal microorganisms, Method A (tables E1-E8); format: cell-based
# Outline: as §1
# Diaporthe citri [5] = experiment: in vitro-Test with fungal microorganisms, Method A (tables F1-F11); format: cell-based
# Outline: as §1
# Diaporthe citri [6] = experiment: in vitro-Test with fungal microorganisms, Method B (tables F12-F15); format: cell-based
# Outline: as §2
# Fusarium culmorum [7] = experiment: in vitro-Test with fungal microorganisms, Method A (tables G1-G4); format: cell-based
# Outline: as §1
# Parastagonospora nodorum [8] = experiment: in vitro-Test with fungal microorganisms, Method A (tables H1-H4); format: cell-based
# Outline: as §1
# Parastagonospora nodorum [9] = experiment: in vitro-Test with fungal microorganisms, Method B (tables H5-H8); format: cell-based
# Outline: as §2
# [10] = system: Ustilago segetum var. avenae; experiment: in vitro-Test with fungal microorganisms, Method A (tables I1-I5); format: cell-based; details: alone
# Outline: as §1
# Colletotrichum coccodes = experiment: in vitro-Test with fungal microorganisms, Method B (tables J1-J11); format: cell-based
# Outline: as §2
# Alternaria alternata = experiment: in vitro-Test with fungal microorganisms, Method B (tables A13-A22); format: cell-based
# Outline: as §2
# Botrytis cinerea [11] = experiment: in vitro-Test with fungal microorganisms, Method B (tables B15-B18); format: cell-based
# Outline: as §2
# Cercospora beticola [12] = experiment: in vitro-Test with fungal microorganisms, Method A (tables C1-C10); format: cell-based
# Outline: as §1
# Fusarium culmorum [13] = experiment: in vitro-Test with fungal microorganisms, Method B (tables G5-G15); format: cell-based; details: single active compound
# Outline: as §2
# [14] = system: Ustilago segetum var. avenae; experiment: in vitro-Test with fungal microorganisms, Method B (tables I6-I11); format: cell-based
# Outline: as §2
# [15] = method [a], acidic range (0.1% formic acid), Table 17, compounds of formula (10)
# [16] = Colletotrichum coccodes, read-out: Efficacy %
# [17] = Colletotrichum coccodes, applied alone, read-out: Efficacy %
smiles,measurement,setting,value
N/C(=N\O)c1cc(Cl)nnc1Oc1cccc(Cl)c1 [Compound 10-04],chromatographic logP,[1]; [15],2
"CCCN(CC)CC1COC2(CCC(C(C)(C)C)CC2)O1 (centres unmarked) [(1.020) spiroxamine, spiroxamine]",inhibition of growth at 0.8 ppm,"Alternaria alternate; Alternaria, 0.8 ppm, read-out: Efficacy %",18%
same,inhibition of growth at 4 ppm,"Alternaria alternate; Alternaria, 4 ppm, read-out: Efficacy %",12%
same,inhibition of growth at 20 ppm,"Alternaria alternate; Alternaria, 20 ppm, read-out: Efficacy %",16%
same,inhibition of growth at 0.8 ppm,"Botrytis cinerea [2]; Botrytis cinerea, 0.8 ppm, read-out: Efficacy",0%
same,inhibition of growth at 4 ppm,"Botrytis cinerea [2]; Botrytis cinerea, 4.0 ppm, read-out: Efficacy",0%
same,inhibition of growth at 20 ppm,"Botrytis cinerea [2]; Botrytis cinerea, read-out: Efficacy",18%
same,inhibition of growth at 0.8 ppm,"Botrytis cinerea [2]; Botrytis cinerea, alone, 0.8 ppm, read-out: Efficacy %",0%
same,inhibition of growth at 20 ppm,"Botrytis cinerea [2]; Botrytis cinerea, alone, read-out: Efficacy %",14%
same,Efficacy %,"Botrytis cinerea [2]; alone, 0.8 ppm",0%
same,inhibition of growth at 4 ppm,"Cercospora beticola [3]; Cercospora beticola, single compound, 4 ppm, read-out: Efficacy %",6%
same,inhibition of growth at 0.8 ppm,"[4]; Colletotrichum lindemuthianum, mixing partner alone, 0.8 ppm, read-out: Efficacy %",0%
same,inhibition of growth at 20 ppm,"[4]; Colletotrichum lindemuthianum, mixing partner alone, 20.0 ppm, read-out: Efficacy %",6%
same,inhibition of growth at 0.8 ppm,"[4]; Colletotrichum lindemuthianum, single active at 0.8 ppm, read-out: Efficacy %",0%
same,inhibition of growth at 4 ppm,"[4]; Colletotrichum lindemuthianum, single active at 4.0 ppm, read-out: Efficacy %",8%
same,inhibition of growth at 20 ppm,"[4]; Colletotrichum lindemuthianum, single active at 20.0 ppm, read-out: Efficacy %",0%
same,inhibition of growth at 20 ppm,"Cordana musae; Neocordana musae, mixing partner alone, 20.0 ppm, read-out: Efficacy %",9%
same,Efficacy %,"Cordana musae; mixing partner alone, 0.8 ppm",0%
same,inhibition of growth at 0.8 ppm,"Diaporthe citri [5]; Diaporthe citri, applied alone, 0.8 ppm, read-out: Efficacy",6%
same,inhibition of growth at 4 ppm,"Diaporthe citri [5]; Diaporthe citri, applied alone, 4.0 ppm, read-out: Efficacy",8%
same,inhibition of growth at 20 ppm,"Diaporthe citri [5]; Diaporthe citri, applied alone, 20.0 ppm, read-out: Efficacy",0%
same,Efficacy,"Diaporthe citri [6]; Table F15, 4 ppm alone",0%
same,Efficacy,"Diaporthe citri [6]; Table F15, 20 ppm alone",4%
same,Efficacy,"Fusarium culmorum [7]; 4.0 ppm, alone",0%
same,inhibition of growth at 20 ppm,"Fusarium culmorum [7]; Fusarium culmorum, 20.0 ppm, alone, read-out: Efficacy",0%
same,Efficacy,"Parastagonospora nodorum [8]; single active compound, 0.8 ppm",2%
same,Efficacy,"Parastagonospora nodorum [8]; single active compound, 4.0 ppm",4%
same,Efficacy,"Parastagonospora nodorum [8]; single active compound, 20.0 ppm",7%
same,inhibition of growth at 0.8 ppm,"Parastagonospora nodorum [9]; Parastagonospora nodorum, 0.8 ppm, read-out: Efficacy",5%
same,inhibition of growth at 4 ppm,"Parastagonospora nodorum [9]; Parastagonospora nodorum, 4 ppm, read-out: Efficacy",5%
same,inhibition of growth at 20 ppm,"Parastagonospora nodorum [9]; Parastagonospora nodorum, 20 ppm, read-out: Efficacy",17%
same,inhibition of growth at 0.8 ppm,"[10]; 0.8 ppm, read-out: Efficacy %",3%
same,inhibition of growth at 4 ppm,"[10]; 4.0 ppm, read-out: Efficacy %",71%
same,inhibition of growth at 20 ppm,"[10]; 20.0 ppm, read-out: Efficacy %",100%
same,inhibition of growth at 0.8 ppm,Colletotrichum coccodes; [16],0%
same,inhibition of growth at 4 ppm,"Colletotrichum coccodes; Colletotrichum coccodes, 4 ppm, read-out: Efficacy %",0%
same,inhibition of growth at 20 ppm,Colletotrichum coccodes; [16],0%
same,inhibition of growth at 0.8 ppm,Colletotrichum coccodes; [17],0%
same,inhibition of growth at 20 ppm,Colletotrichum coccodes; [17],39%
N/C(=N\O)c1cc(Cl)nnc1Oc1cccc(Br)c1F [Compound 10-05],chromatographic logP,[1]; [15],2.21
CON(C)C(=O)c1cc(Cl)nnc1Oc1cccc(C(F)(F)F)c1 [Compound 1-07],LogP,"[1]; method [a], acidic range (0.1% formic acid), Table 3, compounds of formula (1)",2.90^[a]
Cc1ccc(CC(CCl)NC(=NO)c2cc(Cl)nnc2Oc2cccc(C(F)(F)F)c2)c(C)c1 (centres unmarked) [Compound 20-08],LogP,[1]; method [a],2.77^[a]
Cc1cc(C(=O)NC(CON2C(=O)c3ccccc3C2=O)Cc2ccc(C)c(C)c2)c(Oc2cccc(Cl)c2F)nn1 (centres unmarked) [Compound 3-45],LogP,"[1]; method [a], acidic range (0.1% formic acid), Table 7, compounds of formula (3)",4.42^[a]
N/C(=N\O)c1cc(Cl)nnc1Oc1cccc(C2CC2)c1 [Compound 10-08],chromatographic logP,[1]; [15],2.19
N/C(=N\O)c1cc(Cl)nnc1Oc1cccc(C2CC2)c1F [Compound 10-07],chromatographic logP,[1]; [15],2.34
"FC(F)(F)c1cccc(Oc2nnc(Cl)cc2C2=NOC[C@H](Cc3ccccc3)N2)c1 [Compound I-070, (5S)-5-benzyl-3-[6-chloro-3-[3-(trifluoro-methyl)phenoxy]pyridazin-4-yl]-5,6-dihydro-4H-1,2,4-oxadiazine]",LogP,"[1]; method [a]: HPLC, acidic range, 0.1% formic acid in water / acetonitrile",3.81^[a]
"CC(O)(Cn1cncn1)c1ccc(Oc2ccc(Cl)cc2)cc1C(F)(F)F (centres unmarked) [(1.055) mefentrifluconazole, mefentrifluconazole]",Efficacy %,Alternaria alternate; 0.008 ppm,9%
same,Efficacy %,Alternaria alternate; 0.04 ppm,58% and 32%
same,Efficacy %,Alternaria alternate; 0.2 ppm,96% and 100%
same,Efficacy %,Alternaria alternate; 1.0 ppm,100% and 99%
same,Efficacy,Alternaria alternata; 0.008 ppm,9%
same,Efficacy,Alternaria alternata; 0.04 ppm,19%
same,Efficacy,Alternaria alternata; 0.2 ppm,91%
same,Efficacy,"Alternaria alternata; single compound, 0.2 ppm",65%
same,Efficacy,"Alternaria alternata; single compound, 1 ppm",99%
same,Efficacy,Botrytis cinerea [2]; 0.008 ppm,0%
same,Efficacy,Botrytis cinerea [2]; 0.04 ppm,37%
same,Efficacy,Botrytis cinerea [2]; 0.2 ppm,78%
same,Efficacy %,"Botrytis cinerea [2]; alone, 0.008 ppm",0%
same,Efficacy %,"Botrytis cinerea [2]; alone, 0.04 ppm",0%
same,Efficacy %,"Botrytis cinerea [2]; alone, 0.2 ppm",53%
same,Efficacy %,"Botrytis cinerea [2]; alone, 1.0 ppm",100%
same,Efficacy %,Botrytis cinerea [11]; 0.008 ppm alone,0%
same,Efficacy %,Botrytis cinerea [11]; 0.04 ppm alone,0%
same,Efficacy %,Botrytis cinerea [11]; 0.2 ppm alone,30%
same,Efficacy %,Cercospora beticola [12]; 0.008 ppm,12%
same,Efficacy %,Cercospora beticola [12]; 0.008 ppm alone,60% and 80%
same,Efficacy %,Cercospora beticola [12]; 0.04 ppm,100%
same,Efficacy %,Cercospora beticola [12]; 0.04 ppm alone,100% and 91%
same,Efficacy %,Cercospora beticola [12]; 0.2 ppm,100%
same,Efficacy %,Cercospora beticola [12]; 0.2 ppm alone,100%
same,Efficacy %,Cercospora beticola [12]; 1.0 ppm,100%
same,Efficacy %,Cercospora beticola [12]; 1.0 ppm alone,100%
same,Efficacy %,Cercospora beticola [3]; 0.008 ppm,24%
same,Efficacy %,Cercospora beticola [3]; 0.04 ppm,84%
same,Efficacy %,"Cercospora beticola [3]; single compound, 0.008 ppm",14%
same,Efficacy %,"Cercospora beticola [3]; single compound, 0.04 ppm",93%
same,Efficacy %,"[4]; mixing partner alone, 0.008 ppm",0%
same,Efficacy %,"[4]; mixing partner alone, 0.04 ppm",0%
same,Efficacy %,"[4]; mixing partner alone, 0.2 ppm",6%
same,Efficacy %,"[4]; mixing partner alone, 1.0 ppm",13%
same,Efficacy %,[4]; single active at 0.008 ppm,7% and 0%
same,Efficacy %,[4]; single active at 0.04 ppm,0% and 3%
same,Efficacy %,[4]; single active at 0.2 ppm,11%
same,Efficacy %,[4]; single active at 1.0 ppm,0%
same,Efficacy %,"Cordana musae; single substance, 0.008 ppm",4%
same,Efficacy %,"Cordana musae; single substance, 0.04 ppm",29%
same,Efficacy %,"Cordana musae; single substance, 0.2 ppm",100%
same,Efficacy %,"Cordana musae; single substance, 1.0 ppm",100%
same,Efficacy,"Diaporthe citri [5]; applied alone, 0.008 ppm",0%
same,Efficacy,"Diaporthe citri [5]; applied alone, 0.04 ppm",60% and 38%
same,Efficacy,"Diaporthe citri [5]; applied alone, 0.2 ppm",100%
same,Efficacy,"Diaporthe citri [5]; applied alone, 1.0 ppm",100%
same,Efficacy,"Diaporthe citri [5]; single active, 0.008 ppm",17%
same,Efficacy,"Diaporthe citri [5]; single active, 0.04 ppm",69%
same,Efficacy,"Diaporthe citri [5]; single active, 0.2 ppm",99%
same,Efficacy,"Diaporthe citri [5]; single active, 1.0 ppm",100%
same,Efficacy,"Diaporthe citri [6]; Table F14, 0.008 ppm alone",8%
same,Efficacy,"Diaporthe citri [6]; Table F14, 0.04 ppm alone",21%
same,Efficacy,"Diaporthe citri [6]; Table F14, 0.2 ppm alone",94%
same,Efficacy,"Diaporthe citri [6]; Table F14, 1 ppm alone",99%
same,Efficacy,"Fusarium culmorum [7]; Table G1, 0.008 ppm alone",20%
same,Efficacy,"Fusarium culmorum [7]; Table G1, 0.04 ppm alone",22%
same,Efficacy,"Fusarium culmorum [7]; Table G1, 0.2 ppm alone",5%
same,Efficacy,"Fusarium culmorum [7]; Table G1, 1.0 ppm alone",33%
same,Efficacy,Fusarium culmorum [13]; 0.008 ppm,11% and 3%
same,Efficacy,Fusarium culmorum [13]; 0.04 ppm,16% and 24%
same,Efficacy,Fusarium culmorum [13]; 1 ppm,24% and 33%
same,Efficacy,Parastagonospora nodorum [8]; 0.008 ppm,89%
same,Efficacy,Parastagonospora nodorum [8]; 0.04 ppm,99%
same,Efficacy,Parastagonospora nodorum [8]; 0.2 ppm,99%
same,Efficacy,Parastagonospora nodorum [8]; 1.0 ppm,100%
same,Efficacy,"Parastagonospora nodorum [8]; single active compound, 0.008 ppm",90%
same,Efficacy,"Parastagonospora nodorum [8]; single active compound, 0.04 ppm",97%
same,Efficacy,"Parastagonospora nodorum [8]; single active compound, 0.2 ppm",100%
same,Efficacy,"Parastagonospora nodorum [8]; single active compound, 1.0 ppm",100%
same,Efficacy,Parastagonospora nodorum [9]; 0.008 ppm,84%
same,Efficacy,Parastagonospora nodorum [9]; 0.04 ppm,99%
same,Efficacy %,[10]; 0.008 ppm,0%
same,Efficacy %,[10]; 0.04 ppm,4%
same,Efficacy %,[10]; 0.2 ppm,100%
same,Efficacy %,[10]; 1.0 ppm,100%
same,Efficacy %,[14]; 0.008 ppm,4%
same,Efficacy %,[14]; 0.04 ppm,3%
same,Efficacy %,[14]; 0.2 ppm,41%
same,Efficacy %,[14]; 1 ppm,100%
same,Efficacy %,"[14]; alone, 0.2 ppm",53%
same,Efficacy %,"[14]; alone, 1 ppm",100%
same,Efficacy %,Colletotrichum coccodes; 0.008 ppm,0%
same,Efficacy %,Colletotrichum coccodes; 0.2 ppm,34%
same,Efficacy %,Colletotrichum coccodes; 1 ppm,100%
same,Efficacy %,Colletotrichum coccodes; single active compound at 0.2 ppm,22%
N/C(=N\O)c1cc(Cl)nnc1Oc1cccc(C(F)F)c1F [Compound 10-09],chromatographic logP,[1]; [15],1.91
COc1cccc(Oc2nnc(Cl)cc2C#N)c1 [Compound 9-08],chromatographic logP,"[1]; method [a], acidic range (0.1% formic acid), Table 15, compounds of formula (9)",2.75
